Columns and labels:
mu opioid receptor [1] = settings: intrinsic activity of the receptor; read-out: EC50 (potency) at mu opioid receptor; cited from earlier work
Source text: Since hybrid compounds have gained attention due to their potent multifunctional behavior with a more favorable profile in terms of possible side effects, much work devoted to such compounds can be found. PK20 and [Ile^9]PK20, which are hybrid structures encompassing both opioid and neurotensin pharmacophores, although modified, were designed and synthesized to reduce pain.

[2] = Base hydrolysis (1 M NaOH) forced degradation, LC-MS; assay type: physicochemical; settings: for Recovery / Concentration Found (Mean ± SD): basic degradation, 50 μg/mL in 1 M NaOH, n = 3; for Concentration Found (Mean ± SD): neutralised with 1 M HCl
Procedure: (§1) The separation was carried out using Kinetex XB-C18 column (150 mm × 2.1 mm × 1.7 μm; Phenomenex, Torrance, CA, USA). The mobile phase consisted of A: 0.1% formic acid in deionized water and B: 0.1% formic acid in acetonitrile (MeCN). The two-step gradient was used from 5% B to 50% B in 13 min and from 50% B to 65% B up to 20 min. The column temperature was maintained at 25 °C with a flow rate equal to 0.3 mL/min. The eluate was introduced directly to the mass spectrometer. The ion trap setting was as follows: capillary voltage 4500 V, endplate offset 500 V, nebulizer pressure 40 psi, drying gas temperature 145 °C and gas flow rate 9 L/min. The instrument used a smart parameter setting (SPS) fixed at 1000 amu. The scan range was from m/z = 70 to m/z = 2200. Compounds were analyzed in […] ion mode.
(§2) Before LC analysis, the ionization of each quantified compound in the positive ion mode was optimized by the direct injection of standard (50 µg/mL in 0.1% HCOOH in H2O; 0.3 mL/min) into the ESI source of the mass spectrometer. The intensity of the most abundant ion for each compound was monitored in order to choose optimal conditions. The quantification of investigated compounds was performed using the dominating ion (for both PK20 and [Ile^9] PK20 the ion at m/z =1357.40 ± 0.3, retention time ca. 11.2 min).
(§3) The calibration curves were plotted as the amount of injected compound (ng) vs. detector response (peak area) using extracted ion chromatograms (EIC) for the characteristic ion for each compound. The linear range for each quantified compound was between 5 and 200 ng per injection. Five amount levels were used for the plotting of curves. Samples at each level were analyzed in triplicate.
(§4) The stability of PK20 and [Ile^9]PK20 was tested under acidic, basic, oxidative, heat, freeze and ultraviolet light conditions. All experiments were conducted in triplicate (n = 3). The comparison of peak areas in degradative and non-degradative conditions for both compounds can be observed in Figure 3 and Figure 4.
(§5) Drug solution (50 μg/mL) was prepared in HCl (1 M) or NaOH (1 M). Aliquots were kept at a temperature of 80 °C (LBK type water bath, SWL Bytom, Poland) for 12 h and 37°C (medical water bath, LW102, Auritronic, Krakow, Poland) for 24 h. At a specific time-point, acidic and basic solutions of both PK20 and [Ile^9]PK20 were neutralized with an equal volume of 1 M NaOH or 1 M HCl, respectively, and diluted with an equal volume of 0.2% formic acid in acetonitrile and analyzed using LC-MS.

[3] = Thermal degradation and freeze-thaw in Mili-Q water, LC-MS; assay type: physicochemical; settings: 50 μg/mL in Mili-Q water, n = 3
Procedure: as §1, §2, §3, §4
Solutions (50 μg/mL) of both hybrid peptides were prepared in Mili-Q water, and aliquots were kept at room temperature 22 °C, 37 °C and −80 °C for 24 h and at 80 °C for 12 h. One aliquot was also subjected to two freeze–thaw cycles with the sample first frozen at −80°C for 24 h, defrosted under running tap water at room temperature for 2 h and second frozen at −20°C for 24 h and defrosted under running tap water at room temperature for 2 h. Then, the solutions of PK20 and [Ile^9]PK20 were diluted with an equal volume of 0.2% formic acid in acetonitrile and analyzed with LC-MS.

[4] = Photolytic (UV) degradation in Mili-Q water, LC-MS; assay type: physicochemical; settings: 365 nm UV light, 7 h, 50 μg/mL in Mili-Q water, clear plastic vials, n = 3
Procedure: as §1, §2, §3, §4
PK20 and [Ile^9]PK20 solution (50 μg/mL) was prepared in Mili-Q water, and aliquots were kept in clear plastic vials exposed to UV light (366 nm, Camag, UV Lamp 4, Camag, Switzerland) for 7 h. After the incubation, the drug solution was diluted with an equal volume of 0.2% formic acid in acetonitrile and analyzed with LC-MS.

[5] = test system: CA1 region of the hippocampus; test: Excitotoxic injury in organotypic hippocampal slice cultures subjected to NMDA; assay type: cell-based, Rat; settings: administered simultaneously with NMDA, data not published
[6] = Acid hydrolysis (1 M HCl) forced degradation, LC-MS; assay type: physicochemical; settings: for Recovery / Concentration Found (Mean ± SD): acidic degradation, 50 μg/mL in 1 M HCl, n = 3; for Concentration Found (Mean ± SD): neutralised with 1 M NaOH
Procedure: as §1, §2, §3, §4, §5

[7] = test system: NTS1 neurotensin receptor; settings: replacement of Tle with Ile; cited from earlier work
Source text: (§6) Tle and Ile are structural isomers belonging to the same class of leucines with the same atomic composition (C6H13NO2) but they have different chemical structures, including different bond coordination and stereochemistry (Figure 1). Thus, their presence in the peptide structure led to diverse results. In fact, incorporation of Ile into the 9th position of the peptide chain caused a decrease in the analgesic activity in vivo when compared with PK20, having a tert-leucine (Tle9) in the corresponding position. Nonetheless, [Ile^9]PK20 produced the maximal pain-relieving effect, although wi ...

mu opioid receptor [8] = settings: replacement of Tle with Ile; cited from earlier work
Source text: as §6

[9] = Oxidative degradation (30% H2O2), LC-MS; assay type: physicochemical; settings: n = 3
Procedure: as §1, §2, §3, §4
PK20 and [Ile^9]PK20 solution (50 μg/mL) was prepared in 30% (v/v) hydrogen peroxide (H2O2). Aliquots were incubated at 37 °C for 24 h and 80 °C for 12 h. After the incubation, each drug solution was diluted with an equal volume of 0.2% formic acid in acetonitrile and analyzed with LC-MS.

[10] = thermal degradation, 37 °C, 24 h
[11] = thermal degradation, 80 °C, 12 h
[12] = thermal degradation, room temperature (22 °C), 24 h
[13] = thermal degradation, −80 °C, 24 h
[14] = 50 μg/mL in 30% (v/v) H2O2, 37 °C, 24 h
[15] = 50 μg/mL in 30% (v/v) H2O2, 80 °C, 12 h

HELM PEPTIDE1{[Cc1cc(O)cc(C)c1C[C@H](N)C(=O)[*:2]].[dK].F.F.K.K.P.F.I.L}$$$$V2.0 (N-terminus assumed; SMILES CC[C@H](C)[C@H](NC(=O)[C@H](Cc1ccccc1)NC(=O)[C@@H]1CCCN1C(=O)[C@H](CCCCN)NC(=O)[C@H](CCCCN)NC(=O)[C@H](Cc1ccccc1)NC(=O)[C@H](Cc1ccccc1)NC(=O)[C@@H](CCCCN)NC(=O)[C@@H](N)Cc1c(C)cc(O)cc1C)C(=O)N[C@@H](CC(C)C)C(=O)O) [[Ile^9]PK20, analogue of PK20 with Ile instead of Tle at position 9]
EC50 (mu opioid receptor [1]): 1240 nM
Recovery ([2]; 37 °C, 24 h): 37.13%
Concentration Found (Mean ± SD) ([2]; 37 °C, 24 h): 18560 ± 590 ng/mL
Recovery ([2]; 80 °C, 12 h): 11.23%
Concentration Found (Mean ± SD) ([2]; 80 °C, 12 h): 5610 ± 1830 ng/mL
half-life (t1/2) in 1M NaOH ([2]; calculated half-life, alkaline conditions, 1 M NaOH, 50 μg/mL, temperature not given for the half-life): 4.69 h
Concentration Found (Mean ± SD) [3, 10]: 44160 ± 990 ng/mL
Recovery [3, 10]: 88.32%
Concentration Found (Mean ± SD) [3, 11]: 43270 ± 1180 ng/mL
Recovery [3, 11]: 86.54%
Concentration Found (Mean ± SD) [3, 12]: 49710 ± 2240 ng/mL
Recovery [3, 12]: 99.41%
Concentration Found (Mean ± SD) [3, 13]: 51870 ± 400 ng/mL
Recovery [3, 13]: 103.74%
Concentration Found (Mean ± SD) ([3]; two freeze–thaw cycles (24 h −80 °C, 2 h 22 °C, 24 h −20 °C)): 49040 ± 1030 ng/mL
Concentration Found (Mean ± SD) ([4]; mean ± SD): 9630 ± 110 ng/mL
Recovery [4]: 19.25%
extent of damage to the CA1 region of the hippocampus ([5]; dose 25 ng/mL): 8.53% ± 2.65
extent of damage to the CA1 region of the hippocampus ([5]; dose 50 ng/mL): 19.04% ± 8.52
extent of damage to the CA1 region of the hippocampus ([5]; dose 100 ng/mL): 8.62% ± 0.62
Recovery ([6]; 37 °C, 24 h, LC-MS): 88.79%
Concentration Found (Mean ± SD) ([6]; 37 °C, 24 h, LC-MS (EIC m/z 1357.40)): 44390 ± 4480 ng/mL
Recovery ([6]; 80 °C, 12 h, LC-MS): 52.25%
Concentration Found (Mean ± SD) ([6]; 80 °C, 12 h, LC-MS): 26120 ± 1520 ng/mL
half-life in 1M HCl ([6]; calculated half-life, acidic conditions, 1 M HCl, 50 μg/mL, temperature not given for the half-life, LC-MS): 117.7 h
binding at NTS1 neurotensin receptor relative to PK20 [7]: reduced binding
binding at mu opioid receptor relative to PK20 (mu opioid receptor [8]): reduced binding
Concentration Found (Mean ± SD) [9, 14]: 31390 ± 270 ng/mL
Recovery [9, 14]: 62.79%
Concentration Found (Mean ± SD) [9, 15]: 8240 ± 6690 ng/mL
Recovery [9, 15]: 16.48%

Reference: PMC9500858 (International Journal of Molecular Sciences, 2022)
